The values that follow come from patent US10933145B2, “Compositions and methods for reducing the risk of radiocontrast-induced nephropathy” (UNIVERSITY OF PITTSBURGH—OF THE COMMONWEALTH SYSTEM OF …, priority 2016, dated 2021).

SMILES strings stand for the structures.

In assay [1] the test system is NFAT activity in MDCK cells. Put plainly: NFAT-luciferase reporter activity in MDCK cells. It is filed as cell-based, Canine. Particulars: 16 percent radiocontrast, 3 hours, MDCK cells infected with Ad-NFAT-luciferase; FIG. 2. The method, then:
FIG. 2. NFAT (Nuclear Factor of Activated T-cells) activity in MDCK cells measured via NFAT-luciferase expression at increasing concentrations of radiocontrast. MDCK were engineered to contain a reporter for inflammatory NFAT activity. In particular, MDCK cells were infected with Ad-NFAT-luciferase and treated for 3 hours with […] (0-16%) of iohexol radiocontrast. NFAT activity in MDCK cells was measured via NFAT-luciferase expression.

For assay [2], the system named is NFκB activity in MDCK cells. Put plainly: NFκB activity in MDCK cells exposed to radiocontrast, with or without calcineurin inhibitor. It is filed as cell-based, Canine. The settings on record: MDCK cells treated with 16% radiocontrast; FIG. 4A. The text has this:
FIG. 4A-B. NFκB activity in MDCK cells exposed to increasing amounts of radiocontrast and treated with (A) FK506 (gray bar) or DMSO (as negative control, black bar) or (B) Cyclosporin A.
NFκB activity in MDCK cells exposed to increasing amounts of radiocontrast and treated with either FK506 (FIG. 4A) or cyclosporin A (FIG. 4B).

In the case of `CC(=O)N(CC(O)CO)c1c(I)c(C(=O)NCC(O)CO)c(I)c(C(=O)NCC(O)CO)c1I` (centres unmarked) [iohexol radiocontrast, iohexol], the “NFAT activation relative to control” value in assay [1] is 40 fold. The “increase in NFκB activation” value in assay [2] was “approximately 5 fold”.
